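Exposure lasted 48 hours, with cells grown in 96-well plates and compounds tested at five concentrations. The concentration for 50% growth inhibition is given as GI50. TGI marks complete inhibition of growth.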
Experiments:
Test in all cases: growth of human tumour cells (NCI), 48 h
[1] = system: K-562 leukemia
[2] = system: SF-539 CNS
[3] = system: HOP-92 NSCLC
[4] = system: SF-268 CNS
[5] = system: CAKI-1 renal
[6] = system: OVCAR-5 ovarian
[7] = system: HS 578T breast
[8] = system: SN12C renal
[9] = system: SW-620 colon
[10] = system: NCI-H23 lung
[11] = system: UACC-257 melanoma
[12] = system: SF-295 CNS
[13] = system: RPMI-8226 leukemia
[14] = system: UO-31 renal
[15] = system: SNB-19 CNS
[16] = system: ACHN renal
[17] = system: MALME-3M melanoma
[18] = system: PC-3 prostate
[19] = system: MCF7 breast
[20] = system: SK-MEL-5 melanoma
[21] = system: COLO 205 colon
[22] = system: HT29 colon
[23] = system: SR leukemia
[24] = system: SK-MEL-28 melanoma
[25] = system: 786-0 renal
[26] = system: A549 NSCLC
[27] = system: HCC-2998 colon
[28] = system: MDA-MB-231 breast
[29] = system: OVCAR-8 ovarian
[30] = system: CCRF-CEM leukemia
[31] = system: NCI/ADR-RES ovarian
[32] = system: T-47D breast
[33] = system: HCT-15 colon
[34] = system: U251 CNS
[35] = system: TK-10 renal
[36] = system: NCI-H226 lung
[37] = system: HCT-116 colon
[38] = system: HL-60(TB) leukemia
[39] = system: NCI-H460 lung
[40] = system: OVCAR-3 ovarian
[41] = system: IGROV1 ovarian
[42] = system: DU-145 prostate
[43] = system: MDA-MB-435
[44] = system: M14 melanoma
[45] = system: SK-OV-3 ovarian
[46] = system: SK-MEL-2 melanoma
[47] = system: NCI-H522 lung
[48] = system: RXF 393 renal
[49] = system: KM12 colon
[50] = system: BT-549 breast
[51] = system: UACC-62 melanoma
[52] = system: MOLT-4 leukemia
[53] = system: SNB-75 CNS
[54] = system: OVCAR-4 ovarian
[55] = system: LOX IMVI melanoma
[56] = system: A498 renal
[57] = system: HOP-62 NSCLC

CCOc1cc(/C=N\Nc2nnc(C)n2N)c(C)cc1N(CCCl)CCCl
GI50 [1]: 646 nM
TGI [1]: > 100000 nM
GI50 [2]: 1290 nM
TGI [2]: 17400 nM
GI50 [3]: 163 nM
TGI [3]: 1120 nM
GI50 [4]: 1970 nM
TGI [4]: > 92600 nM
GI50 [5]: 1310 nM
TGI [5]: 9440 nM
GI50 [6]: 3050 nM
TGI [6]: > 100000 nM
GI50 [7]: 1520 nM
TGI [7]: 13100 nM
GI50 [8]: 1070 nM
TGI [8]: 27300 nM
GI50 [9]: 663 nM
TGI [9]: > 57300 nM
GI50 [10]: 800 nM
TGI [10]: 9490 nM
GI50 [11]: 396 nM
TGI [11]: 3600 nM
GI50 [12]: 1130 nM
TGI [12]: 6230 nM
GI50 [13]: 97.8 nM
TGI [13]: 3010 nM
GI50 [14]: 1300 nM
TGI [14]: 11800 nM
GI50 [15]: 1280 nM
TGI [15]: > 45700 nM
GI50 [16]: 805 nM
TGI [16]: > 100000 nM
GI50 [17]: 377 nM
TGI [17]: 6770 nM
GI50 [18]: 927 nM
TGI [18]: 7410 nM
GI50 [19]: 391 nM
TGI [19]: > 25700 nM
GI50 [20]: 259 nM
TGI [20]: 1050 nM
GI50 [21]: 375 nM
TGI [21]: 1890 nM
GI50 [22]: 648 nM
TGI [22]: 7170 nM
GI50 [23]: 558 nM
TGI [23]: 23500 nM
GI50 [24]: 1970 nM
TGI [24]: 53800 nM
GI50 [25]: 1510 nM
TGI [25]: 23200 nM
GI50 [26]: 638 nM
TGI [26]: > 20600 nM
GI50 [27]: 1450 nM
TGI [27]: 16000 nM
GI50 [28]: 1390 nM
TGI [28]: 6290 nM
GI50 [29]: 1340 nM
TGI [29]: > 36000 nM
GI50 [30]: 655 nM
TGI [30]: 32500 nM
GI50 [31]: 1370 nM
TGI [31]: 14300 nM
GI50 [32]: 460 nM
TGI [32]: 14300 nM
GI50 [33]: 1280 nM
TGI [33]: > 44500 nM
GI50 [34]: 747 nM
TGI [34]: > 28500 nM
GI50 [35]: 1970 nM
TGI [35]: 51400 nM
GI50 [36]: 1540 nM
TGI [36]: 14700 nM
GI50 [37]: 560 nM
TGI [37]: 13200 nM
GI50 [38]: 351 nM
TGI [38]: 3820 nM
GI50 [39]: 843 nM
TGI [39]: 31500 nM
GI50 [40]: 737 nM
TGI [40]: 38600 nM
GI50 [41]: 1960 nM
TGI [41]: > 100000 nM
GI50 [42]: 2680 nM
TGI [42]: > 100000 nM
GI50 [43]: 500 nM
TGI [43]: > 39100 nM
GI50 [44]: 776 nM
TGI [44]: > 49800 nM
GI50 [45]: 2280 nM
TGI [45]: 8240 nM
GI50 [46]: 2110 nM
TGI [46]: 5330 nM
GI50 [47]: 461 nM
TGI [47]: 5800 nM
GI50 [48]: 1200 nM
TGI [48]: 17700 nM
GI50 [49]: 897 nM
TGI [49]: 19900 nM
GI50 [50]: 1330 nM
TGI [50]: 20600 nM
GI50 [51]: 525 nM
TGI [51]: 15300 nM
GI50 [52]: 876 nM
TGI [52]: 8580 nM
GI50 [53]: 692 nM
TGI [53]: 6500 nM
GI50 [54]: 338 nM
TGI [54]: > 68200 nM
GI50 [55]: 349 nM
TGI [55]: 11200 nM
GI50 [56]: 212 nM
TGI [56]: 2410 nM
GI50 [57]: 631 nM
TGI [57]: 22500 nM

Source: PubChem BioAssay (NCI)
